Test systems include SW-620; CCRF-CEM; ACHN; COLO 205; HOP-92; SN12C; DU-145; BT-549; SF-295; NCI-H522; EKVX; Malme-3M; HT-29; HCT-15; U-251; SF-539; LOX IMVI; TK-10; NCI-H460.
Holding throughout (assay): NCI tumour cell line growth inhibition, 48 h

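Each compound was tested at five concentrations against cells in 96-well plates for 48 hours. GI50 = concentration required for 50% inhibition of growth.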 Active and inactive are the calls of the source. Cut-off read from the data, not from the text of the source: active = GI50 up to about 1.1 µM and inactive = higher.

As for `Cc1cccc(C[C@@]2(SCc3ccccc3)C(C)(C)[C@@H]3CC[C@@]2(C)C3)n1`, the GI50 in the assay with SW-620 is 15 µM (inactive); in the assay with CCRF-CEM, 12.9 µM (inactive); with ACHN, 15.5 µM (inactive); in the assay on COLO 205, 15.6 µM (inactive); in the assay on HOP-92, 14.3 µM (inactive); in the assay with SN12C, 16.3 µM (inactive). Besides, the GI50 in the assay on DU-145 was 16.9 µM (inactive); in the assay with BT-549 it was 20 µM (inactive); in the assay with SF-295, 14 µM (inactive); with NCI-H522, 14.3 µM (inactive); with EKVX it was 17.6 µM (inactive); in the assay on Malme-3M it was 15.5 µM (inactive). Further, the GI50 in the assay with HT-29 is 15 µM (inactive); in the assay with HCT-15, 13.8 µM; with U-251 it was 16.6 µM (inactive); in the assay with SF-539, 23.3 µM (inactive); in the assay with LOX IMVI it was 16.6 µM (inactive); in the assay on TK-10, 17.6 µM (inactive). For the same compound, in the assay on NCI-H460, the GI50 was 15.6 µM (inactive).

`Cc1nc2c(=O)n(C)c(=O)nc-2n(CCO)c1C`: the GI50 in the assay with SW-620, in the assay with CCRF-CEM, with ACHN, in the assay on COLO 205, in the assay with HOP-92 and in the assay with SN12C was > 100 µM (inactive) each time. Further, the GI50 with DU-145, with BT-549, with SF-295, in the assay on NCI-H522, in the assay on EKVX and with Malme-3M was > 100 µM (inactive) in each case. In addition, the GI50 with HT-29 is > 100 µM (inactive); with HCT-15, over 100 µM; with U-251 it was > 100 µM (inactive); in the assay on SF-539, > 100 µM (inactive); in the assay with LOX IMVI, > 100 µM (inactive); with TK-10, > 100 µM (inactive). Moreover, the GI50 in the assay with NCI-H460 was > 100 µM (inactive).

In the case of `CCCCCN1C(=O)C(Cc2ccccc2)N=C(c2ccc(O)cc2)c2cc(Cl)ccc21` (centres undefined), the GI50 in the assay with SW-620 was 10.9 µM (inactive); in the assay on CCRF-CEM, 12.2 µM (inactive); in the assay on ACHN, 13 µM (inactive); in the assay on COLO 205, 2.96 µM (inactive); in the assay with HOP-92, 10.7 µM (inactive); in the assay on SN12C, > 20.7 µM (inactive). Further, the GI50 with DU-145 was 15.8 µM (inactive); in the assay on BT-549, 17.4 µM (inactive); in the assay with SF-295, 6.93 µM (inactive); in the assay on NCI-H522, 2.55 µM (inactive); with EKVX it was 8.41 µM (inactive); with Malme-3M, 7.57 µM (inactive). Further, the GI50 was 9.06 µM (inactive) in the assay with HT-29; 7.67 µM with HCT-15; 9.35 µM (inactive) with U-251; 22.2 µM (inactive) in the assay with SF-539; 6.56 µM (inactive) with LOX IMVI; 12.9 µM (inactive) in the assay on TK-10. In addition, the GI50 in the assay with NCI-H460 was 7.73 µM (inactive).

In the case of `Nc1c(S(=O)(=O)O)cc(Nc2cccc(S(N)(=O)=O)c2)c2c1C(=O)c1ccccc1C2=O`, the GI50 in the assay on SW-620 is 74.5 µM (inactive); in the assay on CCRF-CEM, > 100 µM (inactive); with ACHN, > 100 µM (inactive); in the assay with COLO 205, 38.1 µM (inactive); with HOP-92 it was > 100 µM (inactive); in the assay on SN12C, > 100 µM (inactive). For the same compound, the GI50 in the assay with DU-145 is > 100 µM (inactive); in the assay on BT-549, > 100 µM (inactive); in the assay with SF-295 it was 49.7 µM (inactive); in the assay with NCI-H522, 57.8 µM (inactive); in the assay on EKVX it was 57 µM (inactive); in the assay with Malme-3M, 36.5 µM (inactive). For the same compound, the GI50 is 29.6 µM (inactive) in the assay on HT-29; 84.5 µM with HCT-15; 46.5 µM (inactive) with U-251; > 100 µM (inactive) in the assay on SF-539; 43.8 µM (inactive) in the assay on LOX IMVI; > 100 µM (inactive) in the assay on TK-10. Also, the GI50 in the assay with NCI-H460 is 87.5 µM (inactive).

For the compound `O=S(=O)(O)C(Cc1nc2ccccc2[nH]1)S(=O)(=O)OCCC1S(=O)(=O)OCCOS1(=O)=O` (centres undefined), the GI50 in the assay on SW-620, in the assay on CCRF-CEM, in the assay on ACHN, with COLO 205, in the assay on HOP-92 and in the assay with SN12C was > 100 µM (inactive) each time. Moreover, the GI50 in the assay with DU-145, in the assay with BT-549, with SF-295, with NCI-H522, in the assay on EKVX and in the assay with Malme-3M was > 100 µM (inactive) in each case. In addition, the GI50 with HT-29 was > 100 µM (inactive); in the assay with HCT-15, over 100 µM; in the assay with U-251, > 100 µM (inactive); in the assay on SF-539, > 100 µM (inactive); in the assay on LOX IMVI, > 100 µM (inactive); with TK-10, > 100 µM (inactive). In addition, in the assay with NCI-H460, the GI50 is > 100 µM (inactive).

Consider `C=C1CC(Cn2ccc(=O)[nH]c2=O)(c2ccc(Cl)cc2)OC1=O` (centres undefined), for which the GI50 is 1.83 µM (inactive) in the assay on SW-620; 1.63 µM (inactive) in the assay with CCRF-CEM; 5.15 µM (inactive) in the assay on ACHN; 1.73 µM (inactive) in the assay with COLO 205; 2.07 µM (inactive) in the assay on HOP-92; 11.6 µM (inactive) in the assay with SN12C. For the same compound, the GI50 in the assay with DU-145 is 9.53 µM (inactive); with BT-549, 4.1 µM (inactive); in the assay on SF-295 it was 18.8 µM (inactive); with NCI-H522, 0.839 µM (active); in the assay on EKVX, 16.4 µM (inactive); with Malme-3M, 2.46 µM (inactive). Moreover, the GI50 was 5.41 µM (inactive) in the assay on HT-29; 2.45 µM in the assay with HCT-15; 17.7 µM (inactive) in the assay with U-251; 15.6 µM (inactive) in the assay on SF-539; 2.14 µM (inactive) in the assay with LOX IMVI; 1.57 µM (inactive) in the assay with TK-10. In addition, in the assay on NCI-H460, the GI50 is 9.53 µM (inactive).

As to `COc1cccc(/C=C2\CCCc3ccccc3C2=O)c1`, the GI50 was 17.3 µM (inactive) in the assay with SW-620; 12.3 µM (inactive) in the assay with CCRF-CEM; 26.4 µM (inactive) with ACHN; 17.8 µM (inactive) with COLO 205; 13.4 µM (inactive) in the assay with HOP-92; 16.1 µM (inactive) in the assay with SN12C. The GI50 in the assay on DU-145 was 19.1 µM (inactive); in the assay on BT-549, 16.2 µM (inactive); with SF-295, 14.9 µM (inactive); with NCI-H522, 15 µM (inactive); in the assay with EKVX, 21.3 µM (inactive); with Malme-3M it was 19.6 µM (inactive). The GI50 was 17.1 µM (inactive) with HT-29; 10.9 µM in the assay with HCT-15; 15 µM (inactive) with U-251; 17.1 µM (inactive) in the assay with SF-539; 17.4 µM (inactive) with LOX IMVI; 26.4 µM (inactive) with TK-10. Moreover, the GI50 with NCI-H460 was 14.5 µM (inactive).

Turning to `Cc1nc(O)c(O)c(CN2CCCCC2)n1`, the GI50 with SW-620, in the assay on CCRF-CEM, in the assay with ACHN, with COLO 205, in the assay on HOP-92 and in the assay on SN12C was > 100 µM (inactive) throughout. Besides, the GI50 in the assay with DU-145, with BT-549, in the assay on SF-295, in the assay on NCI-H522, in the assay with EKVX and in the assay with Malme-3M was > 100 µM (inactive) throughout. Further, the GI50 is > 100 µM (inactive) in the assay with HT-29; over 100 µM in the assay with HCT-15; > 100 µM (inactive) in the assay on U-251; > 100 µM (inactive) with SF-539; > 100 µM (inactive) in the assay with LOX IMVI; > 100 µM (inactive) in the assay with TK-10. Further, the GI50 with NCI-H460 is > 100 µM (inactive).

Turning to `CC(C)(O)CO/N=C1\C(=C2\C(=O)Nc3ccccc32)Nc2ccccc21`, the GI50 with SW-620 is 0.811 µM (active); with CCRF-CEM it was 0.435 µM (active); in the assay on ACHN, 0.426 µM (active); in the assay with COLO 205 it was 0.615 µM (active); in the assay with HOP-92, 3.48 µM (inactive); with SN12C, 12 µM (inactive). Moreover, the GI50 in the assay with DU-145 is 0.476 µM (active); in the assay on BT-549 it was 1.82 µM (inactive); in the assay on SF-295 it was 2.52 µM (inactive); with NCI-H522, 1.87 µM (inactive); in the assay with EKVX it was 1.65 µM (inactive); in the assay on Malme-3M it was 4.3 µM (inactive). The GI50 in the assay on HT-29 is 1.75 µM (inactive); in the assay on HCT-15, 0.324 µM; in the assay with U-251 it was 2.38 µM (inactive); in the assay with SF-539, 2.71 µM (inactive); with LOX IMVI, 0.583 µM (active); in the assay on TK-10, 0.601 µM (active). In addition, the GI50 in the assay on NCI-H460 is 0.395 µM (active).

With `CC[C@@]1(O)C(=O)OCc2c1cc1n(c2=O)Cc2c-1nc1ccccc1c2/C=N\NC(=O)C[n+]1ccccc1`, the GI50 in the assay with SW-620 is 1.33 µM (inactive); with CCRF-CEM it was 0.0357 µM (active); with ACHN, 0.0531 µM (active); with COLO 205, 12.1 µM (inactive); in the assay with HOP-92, 3.14 µM (inactive); in the assay on SN12C, 0.119 µM (active). Besides, the GI50 is 0.0944 µM (active) in the assay on DU-145; 7.57 µM (inactive) with BT-549; 0.247 µM (active) in the assay on SF-295; 0.991 µM (active) in the assay with NCI-H522; > 28.1 µM (inactive) in the assay on EKVX; 3.95 µM (inactive) in the assay on Malme-3M. Besides, the GI50 in the assay with HT-29 is 2.33 µM (inactive); with HCT-15, 2.9 µM; with U-251, 0.261 µM (active); in the assay on SF-539, 0.0752 µM (active); in the assay with LOX IMVI, 0.218 µM (active); with TK-10, 20.5 µM (inactive). Besides, the GI50 in the assay with NCI-H460 is 0.117 µM (active).

Turning to `C/C(=N/NC(N)=S)c1ccc[nH]1`, the GI50 in the assay on SW-620, in the assay on CCRF-CEM, in the assay with ACHN, in the assay on COLO 205, with HOP-92 and in the assay with SN12C was > 100 µM (inactive) in each case. The GI50 in the assay with DU-145, with BT-549, in the assay on SF-295, in the assay with NCI-H522, in the assay on EKVX and with Malme-3M was > 100 µM (inactive) in each case. Further, the GI50 with HT-29 is > 100 µM (inactive); with HCT-15 it was over 100 µM; in the assay on U-251 it was > 100 µM (inactive); with SF-539, > 100 µM (inactive); in the assay with LOX IMVI, > 100 µM (inactive); with TK-10 it was > 100 µM (inactive). Moreover, the GI50 in the assay with NCI-H460 is > 100 µM (inactive).

Values taken from ChEMBL document CHEMBL1201862, “PubChem BioAssay data set” (2004).
